pIC50: −log10 of the molar value.
Key:
[1] = system: Staphylococcus aureus; assay: Antimicrobial activity against clinical isolate Staphylococcus aureus CCM 451608 after 24 hrs; assay type: functional; settings: CCM 451608, 24 h
[2] = system: Staphylococcus aureus; assay: Antimicrobial activity against clinical isolate Staphylococcus aureus CCM 451608 after 48 hrs; assay type: functional; settings: CCM 451608, 48 h
[3] = system: Staphylococcus aureus; assay: Antimicrobial activity against clinical isolate methicillin-resistant Staphylococcus aureus H 599608 after 24 hrs; assay type: functional; settings: H 599608, 24 h
[4] = system: Staphylococcus aureus; assay: Antimicrobial activity against clinical isolate methicillin-resistant Staphylococcus aureus H 599608 after 48 hrs; assay type: functional; settings: H 599608, 48 h
[5] = system: Staphylococcus epidermidis; assay: Antimicrobial activity against clinical isolate Staphylococcus epidermidis H 696608 after 24 hrs; assay type: functional; settings: H 696608, 24 h
[6] = system: Staphylococcus epidermidis; assay: Antimicrobial activity against clinical isolate Staphylococcus epidermidis H 696608 after 48 hrs; assay type: functional; settings: H 696608, 48 h
[7] = system: Enterococcus sp.; assay: Antimicrobial activity against clinical isolate Enterococcus sp. J 1436508 after 24 hrs; assay type: functional; settings: J 1436508, 24 h
[8] = system: Enterococcus sp.; assay: Antimicrobial activity against clinical isolate Enterococcus sp. J 1436508 after 48 hrs; assay type: functional; settings: J 1436508, 48 h
[9] = system: Escherichia coli; assay: Antimicrobial activity against clinical isolate Escherichia coli CCM 4517 after 24 hrs; assay type: functional; settings: CCM 4517, 24 h
[10] = system: Escherichia coli; assay: Antimicrobial activity against clinical isolate Escherichia coli CCM 4517 after 48 hrs; assay type: functional; settings: CCM 4517, 48 h
[11] = system: Klebsiella pneumoniae; assay: Antimicrobial activity against clinical isolate Klebsiella pneumoniae D 1175008 after 24 hrs; assay type: functional; settings: D 1175008, 24 h
[12] = system: Klebsiella pneumoniae; assay: Antimicrobial activity against clinical isolate Klebsiella pneumoniae D 1175008 after 48 hrs; assay type: functional; settings: D 1175008, 48 h
[13] = system: Klebsiella pneumoniae; assay: Antimicrobial activity against clinical isolate ESBL-Klebsiella pneumoniae J 1436808 after 24 hrs; assay type: functional; settings: J 1436808, 24 h
[14] = system: Klebsiella pneumoniae; assay: Antimicrobial activity against clinical isolate ESBL-Klebsiella pneumoniae J 1436808 after 48 hrs; assay type: functional; settings: J 1436808, 48 h
[15] = system: Pseudomonas aeruginosa; assay: Antimicrobial activity against clinical isolate Pseudomonas aeruginosa CCM 1961 after 72 hrs; assay type: functional; settings: CCM 1961, 72 h
[16] = system: Pseudomonas aeruginosa; assay: Antimicrobial activity against clinical isolate Pseudomonas aeruginosa CCM 1961 after 120 hrs; assay type: functional; settings: CCM 1961, 120 h
[17] = system: Candida albicans; assay: Antimicrobial activity against Candida albicans ATCC 44859 after 24 hrs by spectrophotometry; assay type: functional; settings: ATCC 44859, 24 h
[18] = system: Aspergillus fumigatus; assay: Antimicrobial activity against Aspergillus fumigatus 231 after 24 hrs by spectrophotometry; assay type: functional; settings: Aspergillus fumigatus, 231, 24 h
[19] = system: Candida albicans; assay: Antimicrobial activity against Candida albicans ATCC 44859 after 48 hrs by spectrophotometry; assay type: functional; settings: ATCC 44859, 48 h
[20] = system: Candida tropicalis; assay: Antimicrobial activity against Candida tropicalis 156 after 24 hrs by spectrophotometry; assay type: functional; settings: Candida tropicalis, 156, 24 h
[21] = system: Candida tropicalis; assay: Antimicrobial activity against Candida tropicalis 156 after 48 hrs by spectrophotometry; assay type: functional; settings: Candida tropicalis, 156, 48 h
[22] = system: Pichia kudriavzevii; assay: Antimicrobial activity against Candida krusei E28 after 24 hrs by spectrophotometry; assay type: functional; settings: E28, 24 h
[23] = system: Pichia kudriavzevii; assay: Antimicrobial activity against Candida krusei E28 after 48 hrs by spectrophotometry; assay type: functional; settings: E28, 48 h
[24] = system: Nakaseomyces glabratus; assay: Antimicrobial activity against Candida glabrata 20/I after 24 hrs by spectrophotometry; assay type: functional
[25] = system: Nakaseomyces glabratus; assay: Antimicrobial activity against Candida glabrata 20/I after 48 hrs by spectrophotometry; assay type: functional
[26] = system: Trichosporon asahii; assay: Antimicrobial activity against Trichosporon asahii 1188 after 24 hrs by spectrophotometry; assay type: functional; settings: Trichosporon asahii, 1188, 24 h
[27] = system: Trichosporon asahii; assay: Antimicrobial activity against Trichosporon asahii 1188 after 48 hrs by spectrophotometry; assay type: functional; settings: Trichosporon asahii, 1188, 48 h
[28] = system: Aspergillus fumigatus; assay: Antimicrobial activity against Aspergillus fumigatus 231 after 48 hrs by spectrophotometry; assay type: functional; settings: Aspergillus fumigatus, 231, 48 h
[29] = system: Lichtheimia corymbifera; assay: Antimicrobial activity against Absidia corymbifera 272 after 24 hrs by spectrophotometry; assay type: functional; settings: Lichtheimia corymbifera, 272, 24 h
[30] = system: Lichtheimia corymbifera; assay: Antimicrobial activity against Absidia corymbifera 272 after 48 hrs by spectrophotometry; assay type: functional; settings: Lichtheimia corymbifera, 272, 48 h
[31] = system: Trichophyton mentagrophytes; assay: Antimicrobial activity against Trichophyton mentagrophytes 445 after 72 hrs by spectrophotometry; assay type: functional; settings: Trichophyton mentagrophytes, 445, 72 h
[32] = system: Trichophyton mentagrophytes; assay: Antimicrobial activity against Trichophyton mentagrophytes 445 after 120 hrs by spectrophotometry; assay type: functional; settings: Trichophyton mentagrophytes, 445, 120 h
[33] = Cytotoxicity against CHOK1 cells after 24 hrs by MTT assay; assay type: cell-based; settings: Cricetulus griseus, CHO-K1, 24 h

CCCCCCCCCCCCCC[N+](C)(C)Cc1ccccc1
125 µM: MFC [19] | MFC [21] | MFC [23] | MFC [25] | MFC [27] | MFC [28] | MFC [30]
4.62: pIC50 [33]
3.9 µM: MBC [2] | MBC [4] | MIC [20] | MIC [21] | MIC [22] | MIC [23]
7.8 µM: MBC [8] | MIC [9] | MBC [10] | MIC [10] | MIC [11] | MBC [12] | MIC [12] | MIC [13] | MBC [14] | MIC [14] | MIC [17] | MIC [18] | MIC [19] | MIC [24] | MIC [25]
2 µM: MIC [3] | MIC [4] | MIC [7] | MIC [8]
31 µM: MIC [26] | MIC [27] | MIC [29] | MIC [30]
63 µM: MBC [16]
1 µM: MIC [1] | MIC [2] | MIC [5] | MBC [6] | MIC [6]
16 µM: MIC [15] | MIC [16] | MIC [28] | MIC [31] | MFC [32] | MIC [32]

CCCCCCCCCCCC[N+](C)(C)Cc1ccccc1
0.5 µM: MIC [1] | MIC [3] | MIC [4] | MIC [5] | MBC [6] | MIC [6] | MIC [7] | MIC [9] | MIC [11] | MBC [12] | MIC [12] | MIC [17] | MIC [19] | MIC [20] | MIC [21] | MIC [22] | MFC [23] | MIC [23] | MIC [24] | MFC [25] | MIC [25] | MIC [26]
4.54: pIC50 [33]
3.9 µM: MIC [15] | MIC [16] | MFC [28] | MIC [28]
2 µM: MBC [2] | MIC [2] | MBC [10] | MIC [10] | MFC [27] | MIC [27] | MFC [32]
7.8 µM: MBC [16] | MIC [29] | MFC [30] | MIC [30]
1 µM: MBC [4] | MBC [8] | MIC [8] | MIC [13] | MBC [14] | MIC [14] | MIC [18] | MFC [19] | MFC [21] | MIC [31] | MIC [32]

CCCCCCCCCCCCCCCC[N+](C)(C)Cc1ccccc1
4.82: pIC50 [33]
63 µM: MFC [25] | MFC [27] | MFC [28] | MFC [30] | MFC [32]
7.83 µM: MIC [19]
125 µM: MBC [16]
2 µM: MIC [3] | MIC [4] | MIC [7] | MIC [8] | MIC [22] | MFC [23] | MIC [23] | MIC [24]
3.9 µM: MBC [2] | MBC [4] | MBC [6] | MBC [8] | MIC [17] | MIC [20] | MIC [25]
16 µM: MIC [15] | MIC [16]
1 µM: MIC [1] | MIC [2]
0.5 µM: MIC [5] | MIC [6]
7.8 µM: MIC [9] | MBC [10] | MIC [10] | MIC [11] | MBC [12] | MIC [12] | MIC [13] | MBC [14] | MIC [14] | MIC [18] | MFC [19] | MFC [21] | MIC [21] | MIC [26] | MIC [27] | MIC [28] | MIC [29] | MIC [30] | MIC [31] | MIC [32]

CCCCCCCCCCCCCCCCCC[n+]1ccc2c(O)cccc2c1
5.15: pIC50 [33]
